Experimental findings from US20240360081A1, “SULFONAMIDE OREXIN RECEPTOR AGONISTS AND USES THEREOF” (Jazz Pharmaceuticals Ireland Limited, priority 2021, published 2024) are described below.

Some results are limits rather than exact numbers.

One may read the EC50 as the midpoint of the concentration-response curve.

This assay addresses T1, human recombinant OX2 (hOX2) receptor expressed in CHO cells (Homo sapiens, UniProt O43614).
T1 construct: host or cells: CHO cells (hOX2-CHO)
T1 sequence (O43614 1-444): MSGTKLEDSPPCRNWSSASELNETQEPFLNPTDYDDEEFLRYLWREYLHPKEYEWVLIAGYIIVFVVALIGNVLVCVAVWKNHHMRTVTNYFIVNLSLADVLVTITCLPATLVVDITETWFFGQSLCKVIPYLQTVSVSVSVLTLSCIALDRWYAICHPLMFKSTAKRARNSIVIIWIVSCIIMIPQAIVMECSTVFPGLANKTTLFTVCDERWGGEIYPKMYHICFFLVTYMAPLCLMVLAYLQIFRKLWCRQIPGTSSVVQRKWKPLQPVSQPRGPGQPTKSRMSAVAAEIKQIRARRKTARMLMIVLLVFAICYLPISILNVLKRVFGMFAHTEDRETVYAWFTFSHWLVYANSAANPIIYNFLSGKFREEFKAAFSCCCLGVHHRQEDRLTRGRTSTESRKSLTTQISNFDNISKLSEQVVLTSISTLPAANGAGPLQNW
The experiment in a line: IP-1 accumulation assay (IP-One HTRF) in hOX2-CHO cells. It counts as cell-based. The settings on record: 60 min at 37° C., 11 points CRC, response as % of maximal OX-A response. Here is the method: The accumulation of Inositol-1 Monophosphate (IP-1) was measured using IP-One HTRF® Terbium cryptate based assay (Cisbio) in human recombinant OX1 (hOX1) and at OX2 (hOX2) receptors expressed in CHO cells (DiscoverX) according to the manufacturer's instructions for cells tested in suspension.
hOX1-CHO and hOX2-CHO cells were seeded into white 384-well plates at a density of 20,000 cells/well in Hank's Balanced Salt Solution (HBSS) containing 20 mM HEPES pH 7.4, 50 mM, LiCl and 0.1% and Bovine Serum Albumin (BSA).
Compounds of the present disclosure were tested in a 11 points concentration response curve (CRC) serially diluted in neat DMSO at 200 fold concentrations and added by Echo acoustic liquid handling (Labcyte) to the cells (0.5% DMSO final in the assay). After 60 min of incubation at 37° C. detection reagents, IP1-d2 tracer and anti-IP1-cryptate were diluted in lysis buffer according to the manufacturer's descriptions and added to the cells.
Following 60 min incubation at room temperature, time-resolved fluorescence (HTRF) was measured at 615 nm and 665 nm by Envision Multilabel reader (Perkin Elmer) and the HTRF ratio (A665/A615x104) was calculated.
The IP-1 accumulation response was expressed as percentage of the maximal OX-A response.
Curve fitting and EC50 estimations were carried out using a four-parameter logistic model using XLfit Software. Mean data of EC50 are calculated from at least two independent experiments performed in duplicates.
In the Tables, below Category A corresponds to compounds displaying an […]<100 nM, Category B between 100 nM and 1,000 nM, Category C between 1,000 nM and 10,000 nM and Category D above 10,000 nM.
Turning to `CN(C)S(=O)(=O)NCC(CO[C@H]1CC[C@@H](c2ccccc2)CC1)n1ccccc1=O` (relative stereo) [Example 1f, 1-{1-[(Dimethylsulfamoyl)amino]-3-{[(CIS)-4-phenylcyclohexyl]oxy}propan-2-yl}-1,2-dihydropyridin-2-one], the EC50 was in the range of 1000 to 10000 nM.
The value for `Cc1cc(C(CNS(=O)(=O)CF)CO[C@H]2CC[C@@H](c3cc(F)cc(F)c3)CC2)c(=O)n(C)c1` (relative stereo) [Example 5t, N-[2-(1,5-dimethyl-2-oxo-1,2-dihydropyridin-3-yl)-3-{[(CIS)-4-(3,5-difluorophenyl)cyclohexyl]oxy}propyl]-1-fluoromethanesulfonamide] was below 100 nM; that for `CS(=O)(=O)NCC(CO[C@H]1CC[C@@H](c2ccccc2)CC1)n1ccccc1=O` (single isomer, unassigned; isomer 1) [Example 1a, (R or S) N-[2-(2-oxo-1,2-dihydropyridin-1-yl)-3-{[(CIS)-4-phenylcyclo-hexyl]oxy}propyl] methane-sulfonamide- Isomer 1] was 1000 to 10000 nM.
As for `Cc1cccn(C(CNS(C)(=O)=O)CO[C@H]2CC[C@@H](c3ccccc3)CC2)c1=O` (single isomer, unassigned; isomer 1) [Example 1d, (R or S) N-[2-(3-methyl-2-oxo-1,2-dihydropyridin-1-yl)-3-{[(CIS)-4-phenylcyclo-hexyl]oxy}propyl] methane-sulfonamide- Isomer 1], the figure is above 10000 nM; as for `CCc1cccn(C(CNS(C)(=O)=O)CO[C@H]2CC[C@@H](c3ccccc3)CC2)c1=O` (single isomer, unassigned; isomer 1) [Example 2a, (R or S) N-[2-(3-ethyl-2-oxo-1,2-dihydropyridin-1-yl)-3-{[(CIS)-4-phenylcyclohexyl]oxy}propyl]methanesulfonamide-Isomer 1], above 10000 nM; as for `Cc1ccn(C(CNS(C)(=O)=O)CO[C@H]2CC[C@@H](c3ccccc3)CC2)n1` (single isomer, unassigned; isomer 1) [Example 2ab, (R or S) N-[2-(3-methyl-1H-pyrazol-1-yl)-3-{[(CIS)-4-phenylcyclohexyl]oxy}propyl]methanesulfonamide-Isomer 1], above 10000 nM.
The value for `Cc1ccnn1C(CNS(C)(=O)=O)CO[C@H]1CC[C@@H](c2ccccc2)CC1` (single isomer, unassigned; isomer 1) [Example 2ad, (R or S) N-[2-(5-methyl-1H-pyrazol-1-yl)-3-{[(CIS)-4-phenylcyclohexyl]oxy}propyl]methanesulfonamide-Isomer 1] was above 10000 nM; that for `Cc1cc(C)c(=O)n(C(CNS(C)(=O)=O)CO[C@H]2CC[C@@H](c3cccc(F)c3)CC2)c1` (single isomer, unassigned; isomer 1) [Example 2af, (R or S) N-[2-(3,5-dimethyl-2-oxo-1,2-dihydropyridin-1-yl)-3-{[(CIS)-4-(3-fluorophenyl)cyclohexyl]oxy}propyl]methanesulfonamide-Isomer 1] was below 100 nM.
As to `Cc1cc(Cl)cn(C(CNS(C)(=O)=O)CO[C@H]2CC[C@@H](c3cccc(F)c3)CC2)c1=O` (single isomer, unassigned; isomer 1) [Example 2ah, (R or S) N-[2-(5-chloro-3-methyl-2-oxo-1,2-dihydropyridin-1-yl)-3-{[(CIS)-4-(3-fluorophenyl)cyclohexyl]oxy}propyl]methanesulfonamide-Isomer 1], the EC50 was below 100 nM.
For the compound `Cc1cc(C)c(=O)n(C(CNS(=O)(=O)N(C)C)CO[C@H]2CC[C@@H](c3cccc(F)c3)CC2)c1` (single isomer, unassigned; isomer 1) [Example 2ar, (R or S) 1-[1-[(dimethylsulfamoyl)amino]-3-{[(CIS)-4-(3-fluorophenyl)cyclohexyl]oxy}propan-2-yl]-3,5-dimethyl-1,2-dihydropyridin-2-one-Isomer 1], the EC50 is below 100 nM.
Take `Cc1cc(C)c(=O)n(C(CNS(=O)(=O)CF)CO[C@H]2CC[C@@H](c3cccc(F)c3)CC2)c1` (single isomer, unassigned; isomer 1) [Example 2au, (R or S) N-[2-(3,5-dimethyl-2-oxo-1,2-dihydropyridin-1-yl)-3-{[(CIS)-4-(3-fluorophenyl)cyclohexyl]oxy}propyl]-1-fluoromethanesulfonamide-Isomer 1]: the EC50 is below 100 nM.
`Cc1cc(C)c(=O)n(C(CNS(C)(=O)=O)COC2CCN(c3ncc(F)cn3)CC2)c1` (single isomer, unassigned; isomer 1) [Example 2az, (R or S) N-[2-(3,5-dimethyl-2-oxo-1,2-dihydropyridin-1-yl)-3-{[1-(5-fluoropyrimidin-2-yl)piperidin-4-yl]oxy}propyl]methanesulfonamide-Isomer 1]: the EC50 is 1000 to 10000 nM.
With `CS(=O)(=O)NCC(CO[C@H]1CC[C@@H](c2ccccc2)CC1)n1cccc(F)c1=O` (single isomer, unassigned; isomer 1) [Example 2g, (R or S) N-[2-(3-fluoro-2-oxo-1,2-dihydropyridin-1-yl)-3-{[(CIS)-4-phenylcyclohexyl]oxy}propyl]methanesulfonamide-Isomer 1], the EC50 is 1000 to 10000 nM.
The value for `Cc1ccc(=O)n(C(CNS(C)(=O)=O)CO[C@H]2CC[C@@H](c3ccccc3)CC2)c1` (single isomer, unassigned; isomer 1) [Example 2j, (R or S) N-[2-(5-methyl-2-oxo-1,2-dihydropyridin-1-yl)-3-{[(CIS)-4-phenylcyclohexyl]oxy}propyl]methanesulfonamide-Isomer 1] was 100 to 1000 nM; that for `Cc1ccn(C(CNS(C)(=O)=O)CO[C@H]2CC[C@@H](c3ccccc3)CC2)c(=O)c1C` (single isomer, unassigned; isomer 1) [Example 2n, (R or S) N-[2-(3,4-dimethyl-2-oxo-1,2-dihydropyridin-1-yl)-3-{[(CIS)-4-phenylcyclohexyl]oxy}propyl]methanesulfonamide-Isomer 1] was 100 to 1000 nM.
On to `Cc1cc(C)c(=O)n(C(CNS(C)(=O)=O)CO[C@H]2CC[C@@H](c3ccccc3)CC2)c1` (single isomer, unassigned; isomer 1) [Example 2t, (R or S) N-[2-(3,5-dimethyl-2-oxo-1,2-dihydropyridin-1-yl)-3-{[(CIS)-4-phenylcyclohexyl]oxy}propyl]methanesulfonamide-Isomer 1], for which the EC50 was below 100 nM.
The value for `Cc1cccn(C(CO[C@H]2CC[C@@H](c3ccccc3)CC2)C(C)NS(C)(=O)=O)c1=O` (single isomer, unassigned; isomer 1) [Example 3a, (2R or 2S) and (3R or 3S) N-[3-(3-methyl-2-oxo-1,2-dihydropyridin-1-yl)-4-{[(CIS)-4-phenylcyclohexyl]oxy}butan-2-yl]methanesulfonamide—Isomer 1] was 1000 to 10000 nM.
The value for `Cn1cccc(C(CNS(C)(=O)=O)CO[C@H]2CC[C@@H](c3ccccc3)CC2)c1=O` (single isomer, unassigned; isomer 1) [Example 4a, (R or S) N-[2-(1-methyl-2-oxo-1,2-dihydropyridin-3-yl)-3-{[(CIS)-4-phenylcyclohexyl]oxy}propyl]methanesulfonamide—Isomer 1] was 1000 to 10000 nM; that for `Cc1cc(C(CNS(=O)(=O)N(C)C)CO[C@H]2CC[C@@H](c3cccc(F)c3)CC2)c(=O)n(C(F)F)c1` (single isomer, unassigned; isomer 1) [Example 5ab, (R or S) 1-(difluoromethyl)-3-[1-[(dimethylsulfamoyl)amino]-3-{[(CIS)-4-(3-fluorophenyl)cyclohexyl]oxy}propan-2-yl]-5-methyl-1,2-dihydropyridin-2-one—Isomer 1] was below 100 nM; that for `Cc1cc(C(CNS(C)(=O)=O)CO[C@H]2CC[C@@H](c3cccc(F)c3)CC2)c(=O)n(C)c1` (single isomer, unassigned; isomer 1) [Example 5c, (R or S) N-[2-(1,5-dimethyl-2-oxo-1,2-dihydropyridin-3-yl)-3-{[(CIS)-4-(3-fluorophenyl)cyclohexyl]oxy}propyl]methanesulfonamide—Isomer 1] was below 100 nM.
